Measured values reported in patent publication US20170143661A1 (priority 2015, published 2017).

Experiments:
Set-up in all cases: species or system broiler birds
Conditions in all cases: in vivo
[1] = tested on: Newcastle disease virus, NDV
[2] = tested on: Newcastle disease virus, NDV; remark: listed apart in the source
[3] = tested on: Newcastle disease virus, NDV; remark: listed apart in the source
[4] = tested on: Newcastle disease virus, NDV; remark: listed apart in the source
Interferon-γ (IFN-γ) = tested on: Interferon-γ (IFN-γ)
Interleukin-6 (IL-6) = tested on: Interleukin-6 (IL-6)

In the case of `CCC(=O)[O-].CCC(=O)[O-].CCC(=O)[O-].[Cr+3]` [chromium propionate], the “serum antibody titers (ELISA)” value [1] is reported as “enhanced significantly”, the “serum antibody titers (HI)” value [2] is reported as “enhanced significantly” and the daily mortality percentages [3] is reported as “lower”. The “mortality by day 15 post-challenge” value [3] was 100%, the onset of mortality [3] was “delayed” and the “mean viral titer in different organs” value [4] was “lower as compared to the control”. For the same compound, the “serum Interferon-γ (IFN-γ) levels” value (Interferon-γ (IFN-γ)) was “Significantly higher”, the “post-challenge responses (serum cytokine)” value (Interleukin-6 (IL-6)) was “increasing trend” and the “serum Interleukin-6 (IL-6) levels” value (Interleukin-6 (IL-6)) was “Significantly higher”.
